In ChEMBL document CHEMBL1124048, “9-(trans-2',trans-3'-dihydroxycyclopent-4'-enyl) derivatives of adenine and 3-deazaadenine: potent inhibitors of bovine liver S-adenosylhomocysteine hydrolase” (J Med Chem, 1988):

Biological target: Adenosylhomocysteinase (Homo sapiens) (UniProt P23526)
Conditions: Bos taurus
Description: NAD+ content of the enzyme tetramer was measured by HPLC on a C 18 reverse-phase column

Adenosylhomocysteinase (Homo sapiens), sequence (P23526 2-432 limits assumed): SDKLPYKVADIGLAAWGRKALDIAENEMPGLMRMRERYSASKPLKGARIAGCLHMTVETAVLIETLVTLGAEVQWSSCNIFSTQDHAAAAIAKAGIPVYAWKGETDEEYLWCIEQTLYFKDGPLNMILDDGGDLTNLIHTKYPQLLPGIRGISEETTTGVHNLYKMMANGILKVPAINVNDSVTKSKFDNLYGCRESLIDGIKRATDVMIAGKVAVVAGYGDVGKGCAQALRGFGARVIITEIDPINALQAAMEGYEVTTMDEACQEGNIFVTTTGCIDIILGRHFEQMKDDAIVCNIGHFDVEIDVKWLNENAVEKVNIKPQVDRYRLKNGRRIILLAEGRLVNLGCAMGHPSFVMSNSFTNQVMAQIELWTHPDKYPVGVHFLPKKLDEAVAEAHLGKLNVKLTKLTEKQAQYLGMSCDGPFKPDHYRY

| SMILES | NAD content (M (M of enzyme)-1) |
| --- | --- |
| Nc1ncnc2c1ncn2[C@@H]1C=C(CO)[C@@H](O)[C@H]1O | 0 |
| Nc1ncnc2c1ncn2[C@@H]1C=C[C@@H](O)[C@H]1O | 0.19 |
